Reference: patent US9895309B2, “Selenosugars for skin tissue repair” (SELENO THERAPEUTICS PTY LTD., priority 2014, dated 2018)

Experiments:
db/db mice [1] = assay: Wound closure, circular incision wounds, diabetic db/db mice, topical treatment; type: in vivo, mouse
Method: FIG. 1 illustrates wound closure observed in the db/db mouse models topically treated with a 1 mM saline solution of 1,4-anhydro-4-seleno-D-talitol (selenosugar) (b) and a non-selenium control sugar, 1,4-anydro-D-talitol (a).
(§1) In the experimental testing according to the present invention, pairs of circular incision wounds on the backs of wildtype C57/BL6 and db^−/db^− mice (n=12 each) were treated daily with a selenosugar according to the current invention or vehicle, topically for 10 days. Wound closure, vascular perfusion and tissue histology were assessed.

db/db mice [2] = assay: Vascular perfusion of wounds by Doppler imaging, diabetic mice; type: in vivo; conditions: diabetic mouse wounds, p<0.05, FIG. 2
Text: FIG. 2 illustrates vascular perfusion measured by Doppler imaging and corresponding to the selenosugar treated wound (1) and the untreated control wound (2) of the db^−/db^− mouse model of FIG. 1 (where * indicates p, 0.05, and n=6). Doppler imaging is a non-invasive technique used to evaluate blood flow velocity with red blood cells as the moving target;
as §1

db/db mice [3] = assay: Tissue histology of diabetic wounds; type: in vivo, mouse; conditions: diabetic wounds vs vehicle
Text: FIGS. 3 to 12 illustrate comparative tissue histology for (a) the wildtype and (b) db/db mouse models, both (i) non-treated mice, (ii) mice treated for 5 days and (iii) mice treated for 10 days. The figures also illustrate plots against time in days for the following wound parameters for (i), (ii) and (iii) (where * indicates p<0.05, ** indicates p<0.01, *** indicates p<0.001);
as §1

wildtype mice = assay: Wound healing comparison of selenosugar with DHSred at the same dose, wildtype mice; type: in vivo, mouse; conditions: for Wound healing after topical application / Scar tissue formed during wound healing: same dose; for Wound healing after topical application / Pus formation in wound: FIG. 16; for Scar tissue formed during wound healing: FIG. 17; for Pus formation in wound: topical
Text: FIG. 15 is a plot illustrating the performance of a selenosugar according to the present invention (1,4-anhydro-4-seleno-D-talitol) (8) against a similar water-soluble selenium compound that is not sugar derived (DHSred) (10) in non-diabetic (wt) mice over time. FIG. 15a illustrates % wound closure in terms of the wound size and FIG. 15b illustrates blood flow intensity (Doppler measurement) in arbitrary units where ** indicates p<0.01, *** p<0.001 and **** p<0.0001 and N=6;
FIG. 16 illustrates a wound treated with a selenosugar according to the present invention (ii) and a wound treated with DHSred (i) at the same dose.
FIG. 17 illustrates typical differences in scar tissue that forms during wound healing in wildtype mice having a wound treated with a selenosugar according to the present invention (ii) and a wound treated with DHSred (i) at the same dose.

[4] = test system: indomethacin-induced stomach ulcers in mice; conditions: Chakraborty et al; cited from earlier work
wildtype C57/BL6 mice = assay: Wound closure, circular incision wounds, wildtype mice, topical treatment; type: in vivo, mouse
Method: as §1

[5] = wildtype mice, listed as DHSred

1,4-anhydro-4-seleno-D-talitol [Formula II]
Wound closure relative to control db/db mice (db/db mice [1]; day 4): 3 fold | Wound closure (db/db mice [1]; day 4, p<0.001 vs control db/db mice): 32% | Wound closure relative to control db/db mice (db/db mice [1]; day 10): 2 fold | Wound closure (db/db mice [1]; day 10, p<0.0001 vs control db/db mice): 83% | Vascular perfusion (Doppler imaging) (db/db mice [2]): improved vascular perfusion | IL-6 level (tissue histology) (db/db mice [3]; FIG. 4, p<0.05): decreased | Elastin level (tissue histology) (db/db mice [3]; FIG. 6, p<0.01): increased | MCP-1 level (tissue histology) (db/db mice [3]; FIG. 9, p<0.001): decreased | MPO level (tissue histology) (db/db mice [3]; FIG. 10, p<0.001): decreased | vWF level (tissue histology) (db/db mice [3]; FIG. 12, p<0.01): decreased

O[C@@H]1C[Se]C[C@H]1O (racemic) [Formula III, DL-trans-3,4-dihydroxy-1-selenolane]
Wound healing after topical application (wildtype mice; wildtype mice): reduced wound healing | Wound healing after topical application (wildtype mice; [5]): inferior healing | Scar tissue formed during wound healing (wildtype mice; wildtype mice): pronounced scar tissue build up | Pus formation in wound (wildtype mice; wildtype mice): observable pus formation | Pus formation in wound (wildtype mice; [5]): development of pus | Healing of indomethacin-induced stomach ulcers [4]: accelerate healing

OC[C@@H](O)[C@@H]1[Se]C[C@@H](O)[C@H]1O [Formula II, 1,4-anhydro-4-seleno-D-talitol]
Wound closure relative to controls (wildtype C57/BL6 mice; day 4): 2 fold | Wound closure (wildtype C57/BL6 mice; day 4, daily topical treatment, p<0.05 vs controls): 32% | Wound closure (wildtype C57/BL6 mice; day 10, daily topical treatment, p<0.01 vs controls): 82% | Inflammatory response during tissue repair (wildtype mice; FIG. 16 and histology): anti-inflammatory response | Tissue repair during wound healing, formula II vs formula III (wildtype mice; wildtype mice, FIG. 15): superior | Wound healing after topical application (wildtype mice; wildtype mice): improved wound closure and healing | Scar tissue formed during wound healing (wildtype mice; wildtype mice): significantly less scar tissue
